Measured values taken from US7951838B2, “Substituted spirocyclic chromanamine compounds as Beta-Secretase modulators and methods of use” (Amgen Inc., priority 2007, dated 2011).

Assays:
[1] = target: T1, BACE (Homo sapiens, UniProt P56817); assay: In vitro enzymatic BACE FRET assay (Enzyme Assay); assay type: biochemical; conditions: pH 4.2, enzyme 0.2 nM, FRET substrate 50 nM
T1 construct: Cells stably expressing Amyloid Precursor Protein (APP) were plated at a density of 40K cells/well in 96 well plates; endogenous in cells
Procedure: In Vitro Enzymatic BACE FRET (Fluorescence Resonance Energy Transfer) Assay (Enzyme Assay)
Assay buffer is 0.05 M acetate, pH 4.2, 10% DMSO final, 100 uM genapol (which is a nonionic detergent, below it's Critical Micelle Concentration). Enzyme (0.2 nM) is pre-incubated for one hour with inhibitors added in 1 uL of DMSO. Then the assay is started by the addition of FRET substrate (50 nM) and incubated for one hour. The FRET assay is terminated with by addition of Tris buffer, which raises the pH to neutrality, and the fluorescence is determined The FRET substrate is a peptide with commercially available fluorophore and quencher, on opposite sides of the BACE cleavage site. Proteolytic cleavage of the FRET substrate releases quenching of fluorescence (excitation 488 nm and […]).

[2] = target: T1, BACE; assay: BACE cell-based assay (Cell Assay), inhibition of Aβ40 by sandwich ELISA; conditions: Aβ40 in conditioned medium of cells stably expressing APP, 24 h incubation
Procedure: BACE Cell-Based Assay (Cell Assay)
The cell-based assay measures inhibition or reduction of Aβ40 in conditioned medium of test compound treated cells expressing amyloid precursor protein.
Cells stably expressing Amyloid Precursor Protein (APP) were plated at a density of 40K cells/well in 96 well plates (Costar). The cells were cultivated for 24 hours at 37° C. and 5% CO2 in DMEM supplemented with 10% FBS. The test compounds were then added to cells in 10-point dose response concentrations with the starting concentration being either 100 μM or 10 μM. The compounds were diluted from stock solutions in DMSO and the final DMSO concentration of the test compounds on cells was 0.1%. After 24 h of incubation with the test compounds the supernatant conditioned media was collected and the Aβ40 levels were determined using a sandwich ELISA. The IC50 of the compound was calculated from the percent of control or percent inhibition of Aβ40 as a function of the concentration of the test compound.
The sandwich ELISA to detect Aβ40 was performed in 96 well microtiter plates, which were pre-treated with goat anti-rabbit IgG (Pierce). The capture and detecting antibody pair that were used to detect Aβ40 from cell supernatants were affinity purified pAb40 (Biosource) and biotinylated 6E10 (Signet Labs Inc.), respectively. The optimal concentration for the pAb40 antibody was 3 μg/ml in Superblock/TBS (Pierce) that was supplemented with 0.05% Tween 20 (Sigma). Optimal concentration for the detection antibody 6E10-biotinylated was 0.5 μg/ml in Superblock/TBS (Pierce) that had been supplemented with 2% normal goat serum and 2% normal mouse serum.
Cellular supernatants were incubated with the capture antibody for 3 h at 4° C., followed by 3 wash steps in TBS-tween (0.05%). The detecting antibody incubation was for 2 h at 4° C., again followed by the wash steps as described previously. The final readout of the ELISA is Time-Resolved Fluorescence (counts per minute) using Delfia reagents Streptavidin-Europium and Enhancement solutions (Perkin Elmer) and the Victor 2 multilabel counter (Perkin Elmer).

T1 sequence (P56817 46-501): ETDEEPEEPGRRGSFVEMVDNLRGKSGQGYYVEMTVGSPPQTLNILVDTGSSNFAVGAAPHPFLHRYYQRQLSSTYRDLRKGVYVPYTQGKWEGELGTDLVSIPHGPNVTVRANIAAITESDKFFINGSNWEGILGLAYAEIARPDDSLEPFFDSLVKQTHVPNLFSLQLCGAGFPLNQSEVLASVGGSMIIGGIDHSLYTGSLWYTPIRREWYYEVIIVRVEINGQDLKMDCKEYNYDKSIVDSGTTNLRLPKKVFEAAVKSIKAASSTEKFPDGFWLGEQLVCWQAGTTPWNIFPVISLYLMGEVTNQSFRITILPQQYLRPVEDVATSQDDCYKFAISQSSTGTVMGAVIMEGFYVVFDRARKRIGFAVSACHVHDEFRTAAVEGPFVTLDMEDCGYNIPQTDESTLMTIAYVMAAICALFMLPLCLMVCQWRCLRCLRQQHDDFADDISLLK

IC50 [1] [µM]	IC50 [2] [µM]	SMILES
0.1 to 1	< 0.1	CC(C)(C)Cc1cnc2c(c1)[C@@H](NC[C@@H](O)[C@H](Cc1cc(F)cc(F)c1)Nc1nccn3cnnc13)CC1(CCC1)O2 [Example 21, (2R,3S)-4-(3,5-difluorophenyl)-1-(((4′S)-6′-(2,2-dimethylpropyl)-3′,4′-dihydrospiro[cyclobutane-1,2′-pyrano[2,3-b]pyridin]-4′-yl)amino)-3-([1,2,4]triazolo[4,3-a]pyrazin-8-ylamino)-2-butanol]
10 to 25	5 to 10	O[C@H](CN[C@H]1CC2(CCC2)Oc2ccc(Br)cc21)[C@H](Cc1ccccc1)Nc1nccn2cnnc12 [Example 22, (2R,3S)-1-(((4S)-6-bromo-3,4-dihydrospiro[chromene-2,1′-cyclobutan]-4-yl)amino)-4-phenyl-3-([1,2,4]triazolo[4,3-a]pyrazin-8-ylamino)-2-butanol]
< 0.1	0.1 to 1	CC(C)(C)Cc1cnc2c(c1)[C@@H](NC[C@@H](O)[C@H](Cc1cc(F)cc(F)c1)Nc1ccnc(Cl)n1)CC1(CCC1)O2 [Example 24, (2R,3S)-3-((2-chloro-4-pyrimidinyl)amino)-4-(3,5-difluorophenyl)-1-(((4′S)-6′-(2,2-dimethylpropyl)-3′,4′-dihydrospiro[cyclobutane-1,2′-pyrano[2,3-b]pyridin]-4′-yl)amino)-2-butanol]
0.1 to 1	1 to 5	CC(C)(C)Cc1cnc2c(c1)[C@@H](NC[C@@H](O)[C@H](Cc1cc(F)cc(F)c1)Nc1ncccn1)CC1(CCC1)O2 [Example 25, (2R,3S)-4-(3,5-difluorophenyl)-1-(((4′S)-6′-(2,2-dimethylpropyl)-3′,4′-dihydrospiro[cyclobutane-1,2′-pyrano[2,3-b]pyridin]-4′-yl)amino)-3-(2-pyrimidinylamino)-2-butanol]
1 to 5	10 to 25	CC(C)(C)Cc1cnc2c(c1)[C@@H](NC[C@@H](O)[C@H](Cc1cc(F)cc(F)c1)Nc1ccccc1F)CC1(CCC1)O2 [Example 26, (2R,3S)-4-(3,5-difluorophenyl)-1-(((4′S)-6′-(2,2-dimethylpropyl)-3′,4′-dihydrospiro[cyclobutane-1,2′-pyrano[2,3-b]pyridin]-4′-yl)amino)-3-((2-fluorophenyl)amino)-2-butanol]
1 to 5	0.1 to 1	CCc1ccc2c(c1)[C@@H](NC[C@@H](O)[C@H](Cc1cccc(C#N)c1)Nc1ccccc1F)CC1(CCC1)O2 [Example 27, 3-((2S,3R)-4-(((4S)-6-ethyl-3,4-dihydrospiro[chromene-2,1′-cyclobutan]-4-yl)amino)-2-((2-fluorophenyl)amino)-3-hydroxybutyl)benzonitrile]
1 to 5	10 to 25	CC(C)(C)Cc1cnc2c(c1)[C@@H](NC[C@@H](O)[C@H](Cc1ccc(F)cc1)Nc1cc(Cl)ncn1)CC1(CCC1)O2 [Example 28, (2R,3S)-3-((6-chloro-4-pyrimidinyl)amino)-1-(((4′S)-6′-(2,2-dimethylpropyl)-3′,4′-dihydrospiro[cyclobutane-1,2′-pyrano[2,3-b]pyridin]-4′-yl)amino)-4-(4-fluorophenyl)-2-butanol]
1 to 5	10 to 25	CC(C)(C)Cc1cnc2c(c1)[C@@H](NC[C@@H](O)[C@H](Cc1ccc(F)cc1)Nc1ccnc(Cl)n1)CC1(CCC1)O2 [Example 29, (2R,3S)-3-((2-chloro-4-pyrimidinyl)amino)-1-(((4′S)-6′-(2,2-dimethylpropyl)-3′,4′-dihydrospiro[cyclobutane-1,2′-pyrano[2,3-b]pyridin]-4′-yl)amino)-4-(4-fluorophenyl)-2-butanol]
5 to 10	10 to 25	CC(C)(C)Cc1cnc2c(c1)[C@@H](NC[C@@H](O)[C@H](Cc1ccc(F)cc1)Nc1ncnc3ccsc13)CC1(CCC1)O2 [Example 30, (2R,3S)-1-(((4′S)-6′-(2,2-dimethylpropyl)-3′,4′-dihydrospiro[cyclobutane-1,2′-pyrano[2,3-b]pyridin]-4′-yl)amino)-4-(4-fluorophenyl)-3-(thieno[3,2-d]pyrimidin-4-ylamino)-2-butanol]
5 to 10	10 to 25	CCc1ccc2c(c1)[C@@H](NC[C@@H](O)[C@H](Cc1ccccc1)Nc1ccccc1F)CC1(CCC1)O2 [Example 31, (2R,3S)-1-(((4S)-6-ethyl-3,4-dihydrospiro[chromene-2,1′-cyclobutan]-4-yl)amino)-3-((2-fluorophenyl)amino)-4-phenyl-2-butanol]
5 to 10	10 to 25	CCc1ccc2c(c1)[C@@H](NC[C@@H](O)[C@H](Cc1ccccc1)Nc1ccccc1F)CC1(CCCC1)O2 [Example 32, (2R,3S)-1-(((4S)-6-ethyl-3,4-dihydrospiro[chromene-2,1′-cyclopentan]-4-yl)amino)-3-((2-fluorophenyl)amino)-4-phenyl-2-butanol]
10 to 25	10 to 25	CCc1ccc2c(c1)[C@@H](NC[C@@H](O)[C@H](Cc1ccccc1)Nc1nccc(C(F)(F)F)n1)CC1(CCC1)O2 [Example 33, (2R,3S)-1-((S)-6-ethyl-2,2-spirocyclobutyl-chroman-4-ylamino)-4-phenyl-3-(4-(trifluoromethyl)pyrimidin-2-ylamino)butan-2-ol]
5 to 10	10 to 25	CSc1nc(Cl)cc(N[C@@H](Cc2ccc(F)cc2)[C@H](O)CN[C@H]2CC3(CCC3)Oc3ncc(CC(C)(C)C)cc32)n1 [Example 34, (2R,3S)-3-((6-chloro-2-(methylthio)-4-pyrimidinyl)amino)-1-(((4′S)-6′-(2,2-dimethylpropyl)-3′,4′-dihydrospiro[cyclobutane-1,2′-pyrano[2,3-b]pyridin]-4′-yl)amino)-4-(4-fluorophenyl)-2-butanol]
10 to 25	0.1 to 1	CC(C)(C)Cc1cnc2c(c1)[C@@H](NC[C@@H](O)[C@H](Cc1ccc(F)cc1)Nc1ncnc3sccc13)CC1(CCC1)O2 [Example 35, (2R,3S)-1-(((4′S)-6′-(2,2-dimethylpropyl)-3′,4′-dihydrospiro[cyclobutane-1,2′-pyrano[2,3-b]pyridin]-4′-yl)amino)-4-(4-fluorophenyl)-3-(thieno[2,3-d]pyrimidin-4-ylamino)-2-butanol]
10 to 25	1 to 5	CCc1ccc2c(c1)[C@@H](NC[C@@H](O)[C@H](Cc1ccccc1)Nc1nc3ccccc3o1)CC1(CCC1)O2 [Example 36, (2R,3S)-3-(1,3-benzoxazol-2-ylamino)-1-(((4S)-6-ethyl-3,4-dihydrospiro[chromene-2,1′-cyclobutan]-4-yl)amino)-4-phenyl-2-butanol]
10 to 25	5 to 10	CCc1ccc2c(c1)[C@@H](NC[C@@H](O)[C@H](Cc1ccccc1)Nc1nccc(CC)n1)CC1(CCC1)O2 [Example 37, (2R,3S)-1-((S)-6-ethyl-2,2-spirocyclobutyl-chroman-4-ylamino)-4-phenyl-3-(4-ethylpyrimidin-2-ylamino)butan-2-ol]
10 to 25	10 to 25	CCc1ccc2c(c1)[C@@H](NC[C@@H](O)[C@H](Cc1ccccc1)Nc1ncccn1)CC1(CCC1)O2 [Example 38, (2R,3S)-1-((S)-6-ethyl-2,2-spirocyclobutyl-chroman-4-ylamino)-4-phenyl-3-(pyrimidin-2-ylamino)butan-2-ol]
	10 to 25	CCc1ccc2c(c1)[C@@H](NC[C@@H](O)[C@H](Cc1ccccc1)Nc1cnccn1)CC1(CCCC1)O2 [Example 40, (2R,3S)-1-(((4S)-6-ethyl-3,4-dihydrospiro[chromene-2,1′-cyclopentan]-4-yl)amino)-4-phenyl-3-(2-pyrazinylamino)-2-butanol]
10 to 25		CCc1ccc2c(c1)[C@@H](NC[C@@H](O)[C@H](Cc1ccccc1)Nc1nc3ccccc3s1)CC1(CCC1)O2 [Example 42, (2R,3S)-3-(1,3-benzothiazol-2-ylamino)-1-(((4S)-6-ethyl-3,4-dihydrospiro[chromene-2,1′-cyclobutan]-4-yl)amino)-4-phenyl-2-butanol]
	1 to 5	CCc1ccc2c(c1)[C@@H](NC[C@@H](O)[C@H](Cc1ccccc1)Nc1ccncc1)CC1(CCC1)O2 [Example 44, (2R,3S)-1-(((4S)-6-ethyl-3,4-dihydrospiro[chromene-2,1′-cyclobutan]-4-yl)amino)-4-phenyl-3-(4-pyridinylamino)-2-butanol]
